# System: Hela-luci cells
# Assay: cytotoxicity in Hela-luci cells by MTT method
# Assay type: cell-based
# Conditions: 24 hours, siRNA (and cationic polymer where named) at transfection concentration, EGCG dose well above the transfection dose
# Description: (§1) A method for studying the cytotoxicity of the natural polyphenol EGCG in the present invention comprises steps of: incubating Hela-luci cells in a 96-well plate at a cell density of 10^4 cells/well, removing a medium after incubation for 12 hours, and adding 100 μl fresh medium containing the siRNA whose concentration is the same as transfection concentration and a certain amount of EGCG, where the concentration of EGCG is from low to high (comprising the transfection concentration), and a final concentration is much higher than the transfection concentration; culturing for 24 hours, and measuring cytotoxicity by a MTT method.
# as §1, with “polyphenol EGCG and cationic polymer LPEI in the” for “polyphenol EGCG in the”, “the siRNA and LPEI whose concentration” for “the siRNA whose concentration”, “MTT method. […]” for “MTT method.”
compound,measurement,value
O=C(O[C@@H]1Cc2c(O)cc(O)cc2O[C@@H]1c1cc(O)c(O)c(O)c1)c1cc(O)c(O)c(O)c1 [EGCG],cell viability,more than 90%

# From patent publication US11077206B2, “Composition for gene therapy or transfection, and preparation method and use thereof” (SHANGHAI CHANGZHENG HOSPITAL, priority 2017, dated 2021)
